Measurements taken from article PMC6556873, “Rapid Covalent-Probe Discovery by Electrophile-Fragment Screening” (Journal of the American Chemical Society, 2019).
Like-named read-outs stand apart in the source and are kept apart here.

Assays:
OTUB2 (OTUB2A) = target: T1, OTUB2 (OTUB2A) (Homo sapiens, UniProt Q96DC9); design: Intact protein LC/MS covalent labelling, fragments in pools of five, 200 uM each, 4 °C; details: 24 h, 4 °C, pool of five; 200 µM; covalent
T1 construct: full length residues 1-234, E. coli BL21(DE3)-R3, His tag removed by TEV, construct 27312 Da
T1 sequence (Q96DC9 1-234): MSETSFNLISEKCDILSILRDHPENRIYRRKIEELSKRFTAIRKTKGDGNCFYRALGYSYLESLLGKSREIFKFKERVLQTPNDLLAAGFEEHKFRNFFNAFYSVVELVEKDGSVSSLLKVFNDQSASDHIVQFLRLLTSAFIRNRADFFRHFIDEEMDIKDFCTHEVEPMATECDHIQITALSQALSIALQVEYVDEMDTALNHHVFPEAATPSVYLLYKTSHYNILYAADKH
Procedure: (§1) Incubations were performed at 200 μM for each compound and 2 μM of protein (10 μM for BSA) for 24 h at 4 °C with moderate shaking. Incubation buffers varied among proteins (PBS pH 7.4 for QSOX1 and BSA; 10 mM HEPES pH 7.5, 0.3 M NaCl, 0.5 mM TCEP for PCAF, UPS8, and NUDT7; […]; 10 mM Na2HPO4 pH 7.5 100 mM NaCl 5 mM β-mercaptoethanol for NV3CP; 20 mM Na phosphate pH 7.5 for NNMT; […]. The reaction was stopped by quenching with formic acid, 0.4% final concentration. Each protein was incubated with the electrophilic library in pools of five compounds per well. The pool’s composition maximized the difference in mass between fragments in the same well. Incubations were performed with each fragment at 200 μM, for 24 h at 4 °C, to allow the screening of proteins that are not stable for long time periods at higher temperatures. Following incubation, we used intact protein [compound left out] chromatography/mass spectrometry (LC/MS) to identify the fragments and quantify their labeling (Figure 3A). […] There was good agreement between the percent of labeling of NUDT7 by 100 random individual compounds and that obtained in pools of five (R^2=0.78; Figure S6 and Data set 2 in the Supporting Information).

NUDT7 = target: T2, NUDT7 (Homo sapiens, UniProt P0C024); design: Intact protein LC/MS covalent labelling, fragments in pools of five, 200 uM each, 4 °C; details: 24 h, 4 °C, pool of five; 200 µM; covalent
T2 construct: residues 14-235, E. coli, pNIC28-Bsa4, N-terminal His6 tag removed by TEV, construct 26672 Da
T2 sequence (P0C024 14-235): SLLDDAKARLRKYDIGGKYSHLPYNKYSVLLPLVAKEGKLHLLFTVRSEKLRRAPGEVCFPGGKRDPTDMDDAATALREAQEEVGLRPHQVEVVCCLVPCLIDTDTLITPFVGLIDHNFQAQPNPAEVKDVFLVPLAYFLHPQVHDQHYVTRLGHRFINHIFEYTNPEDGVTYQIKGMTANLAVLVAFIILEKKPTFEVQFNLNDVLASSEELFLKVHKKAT
Procedure: as §1

BSA = target: T3, BSA (Bos taurus, UniProt P02769); design: Intact protein LC/MS covalent labelling, fragments in pools of five, 200 uM each, 4 °C; details: 24 h, 4 °C, pool of five; 200 µM; covalent
T3 construct: gene ALB
T3 sequence (P02769 whole entry, the tested form may be a part): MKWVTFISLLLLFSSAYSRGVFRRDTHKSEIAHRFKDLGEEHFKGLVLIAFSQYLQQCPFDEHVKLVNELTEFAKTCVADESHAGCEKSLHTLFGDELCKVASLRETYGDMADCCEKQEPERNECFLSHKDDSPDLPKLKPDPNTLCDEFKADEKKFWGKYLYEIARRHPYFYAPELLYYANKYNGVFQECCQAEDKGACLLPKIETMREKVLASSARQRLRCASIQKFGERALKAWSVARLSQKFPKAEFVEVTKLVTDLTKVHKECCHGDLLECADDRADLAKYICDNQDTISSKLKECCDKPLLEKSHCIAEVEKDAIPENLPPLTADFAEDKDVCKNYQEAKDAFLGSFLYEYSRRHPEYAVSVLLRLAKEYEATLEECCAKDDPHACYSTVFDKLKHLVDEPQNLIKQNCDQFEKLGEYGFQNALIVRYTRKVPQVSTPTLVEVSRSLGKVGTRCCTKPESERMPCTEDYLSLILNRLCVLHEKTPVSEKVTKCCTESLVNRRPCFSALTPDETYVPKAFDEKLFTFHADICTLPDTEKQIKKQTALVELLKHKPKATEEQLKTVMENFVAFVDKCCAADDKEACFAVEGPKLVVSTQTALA
Procedure: as §1

PCAF = target: T4, PCAF (Homo sapiens, UniProt Q92831); design: Intact protein LC/MS covalent labelling, fragments in pools of five, 200 uM each, 4 °C; details: 24 h, 4 °C, pool of five; 200 µM; covalent
T4 construct: gene KAT2B
T4 sequence (Q92831 whole entry, the tested form may be a part): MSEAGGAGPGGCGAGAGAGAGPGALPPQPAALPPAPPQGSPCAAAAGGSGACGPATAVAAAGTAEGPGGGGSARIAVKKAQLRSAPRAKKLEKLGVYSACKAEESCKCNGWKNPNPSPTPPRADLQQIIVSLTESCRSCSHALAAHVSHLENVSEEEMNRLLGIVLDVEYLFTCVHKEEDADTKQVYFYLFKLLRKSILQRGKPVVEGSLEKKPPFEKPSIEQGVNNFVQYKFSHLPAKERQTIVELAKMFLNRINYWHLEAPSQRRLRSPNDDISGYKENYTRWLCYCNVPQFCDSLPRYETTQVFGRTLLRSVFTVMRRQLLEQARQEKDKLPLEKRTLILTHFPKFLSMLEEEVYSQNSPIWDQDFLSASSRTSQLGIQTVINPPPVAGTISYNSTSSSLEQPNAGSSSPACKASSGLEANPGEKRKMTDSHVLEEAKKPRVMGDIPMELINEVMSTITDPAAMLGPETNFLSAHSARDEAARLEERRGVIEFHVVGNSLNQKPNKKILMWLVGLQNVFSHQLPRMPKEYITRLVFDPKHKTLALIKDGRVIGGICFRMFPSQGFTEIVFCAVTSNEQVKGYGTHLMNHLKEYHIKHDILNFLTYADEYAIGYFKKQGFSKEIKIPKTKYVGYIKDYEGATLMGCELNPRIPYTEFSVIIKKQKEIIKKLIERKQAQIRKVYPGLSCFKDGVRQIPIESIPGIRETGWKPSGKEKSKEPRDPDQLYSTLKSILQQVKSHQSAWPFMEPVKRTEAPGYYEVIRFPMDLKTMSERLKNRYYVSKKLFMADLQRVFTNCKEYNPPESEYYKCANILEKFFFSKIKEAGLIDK
Procedure: as §1

in vitro [1] = assay: in vitro; design: species or system HB2, CCD841; details: human, hek293 cells
in vitro [2] = assay: in vitro; design: species or system HB2, HEK293; details: human, ccd841 cells
in vitro [3] = assay: in vitro; design: species or system CCD841, HEK293; details: human, hb2 cells, read-out: HB-2 Cells Viability (%)

SMILES | OTUB2 (OTUB2 (OTUB2A)) | NUDT7 (NUDT7) | BSA (BSA) | PCAF (PCAF) | viability at 48 h, 10 µM (in vitro [1]) [%] | viability at 48 h, 10 µM (in vitro [2]) [%] | viability at 48 h, 10 µM (in vitro [3]) [%]
COC(=O)c1ccc(NC(=O)CCl)cc1 [PCM-0102204] | 0 | 0 | 0 | 0 | 3.8 | 56.2 | 22.5
CCC1(C)NC(=O)N(NC(=O)CCl)C1=O (stereo not drawn) [PCM-0102205] | 0 | 0 | 0 | 0 | 88 | 85.3 | 96.9
Cc1nc(NC(=O)CCl)c(Cl)cc1Cl [PCM-0102206] | 0 | 0 | 0 | 0 | 101 | 105 | 110
CC1Cc2cc(S(N)(=O)=O)ccc2N1C(=O)CCl (stereo not drawn) [PCM-0102207] | 0 | 0.07 | 0 | 0 | 16.5 | 34.2 | 58.7
Cc1ccc(NC(=O)CCl)cc1Cl [PCM-0102208] | 0.46 | 0.19 | 0 | 0 | 1.2 | 37.4 | 3.7
O=C(CCl)Nc1cc2c(cc1Cl)OCO2 [PCM-0102209] | 0.27 | 0.13 | 0 | 0 | 47.1 | 70.7 | 58.1
COc1cc(Cl)c(C)cc1NC(=O)CCl [PCM-0102210] | 0.25 | 0 | 0 | 0 | 5.5 | 64.1 | 8.5
Cc1nnc(NC(=O)CCl)s1 [PCM-0102211] | 0 | 0 | 0 | 0 | 90.5 | 86.7 | 99.8
CC(NC(=O)CCl)c1ccc(Cl)cc1Cl (stereo not drawn) [PCM-0102212] | 0.18 | 0.54 | 0 | 0 | 37.3 | 58.2 | 37.4
Cl.O=C(CCl)N1CCN(c2ccccn2)CC1 [PCM-0102213] | 0 | 0 | 0 | 0 | 81.6 | 94.7 | 84.5
CC1CCN(C(=O)CCl)c2ccccc2S1 (stereo not drawn) [PCM-0102216] | 0 | 0.32 | 0 | 0 | 42.4 | 52.4 | 77.3
O=C(CCl)Nc1ccc(F)c(Cl)c1 [PCM-0102217] | 0.14 | 0 | 0.13 | 0 | 1.1 | 18.8 | 2.5
O=C(CCl)Nc1cc(C(F)(F)F)ccc1-n1cncn1 [PCM-0102218] | 0 | 0.28 | 0 | 0 | 17.7 | 63.7 | 42.2
O=C(Nc1ccccc1)C1CCN(C(=O)CCl)CC1 [PCM-0102219] | 0 | 0 | 0 | 0 | 5.6 | 34.2 | 5.6
CS(=O)(=O)c1ccc(Cl)c(NC(=O)CCl)c1 [PCM-0102220] | 0 | 0.05 | 0 | 0 | 21.3 | 60.9 | 45.5
